Laboratory results as given in patent US11166947B2, “Effective dosing of a child for the treatment of ADHD with methylphenidate” (Neos Therapeutics, LP, priority 2016, dated 2021).
Converted amounts (≈) assume the structure as drawn.

System: pediatric patients with ADHD
Assay: Integrated PKPD model fit to SKAMP total score measurements from the Day 7 classroom evaluation
Assay type: in vivo, human
Settings: base (final) PKPD model estimate, 81 pediatric patients
Text: This example describes the development of a pharmacokinetic-pharmacodynamic model for the therapeutic effect of a particular methylphenidate formulation and its testing on a population of pediatric patients with ADHD. The drug formulation tested in this example is designated MPH XR-ODT and described in U.S. Publication No. 2014/0030348, which is incorporated herein by reference.
The structural PK model for a plasma concentration following administration of the stimulant was described by two parallel inputs into a central compartment and linear elimination from the central compartment.
Body weight appears as a covariate of CL and V which was included in the model in the following way: CLi=tvCL*Weight^0.655 Equation 1 Vi=tvV*Weight^0.670 Equation 2 where CL, and V, are the clearance and volume of distribution parameters for individual “i”, tvCL and tvV are the typical population clearance and volume of distribution parameters, and weight is body weight in kg. Model parameters were determined using nonlinear mixed-effects modeling with first-order conditional maximum likelihood estimation using Phoenix NLME (Version 6.3).
This phenomenon was readily obvious in the patients that were assigned to the placebo treatment arm. Therefore, the PD model required a drug effect component and a placebo effect component. […]

Q: What does the source list for `COC(=O)C(c1ccccc1)C1CCCCN1` (centres unmarked) [methylphenidate]?
A: EC50 (Homo sapiens, simulated plasma concentrations, read-out: EC50, concentration of methylphenidate required to achieve 50% of the maximal reduction in SKAMP total score): 0.0142 µg/mL (≈ 0.061 µM); Emax, maximum reduction in SKAMP total score with administration of methylphenidate: 38.1
